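Step 1: Grow cells in 96-well plates. Step 2: Expose to compound for 48 hours at 5 concentrations. Step 3: Interpolate endpoints linearly; if unreached, use highest concentration. TGI: total growth inhibition.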 Where a SMILES comes first, the peptide text is derived from it. [ ]: non-standard residue; d: D form. The star is where a group is joined. ξ: configuration not given here. NMeF = CN[C@@H](Cc1ccccc1)C(=O)O; ξNMeV = CNC(C(=O)O)C(C)C; Boc = CC(C)(C)OC(=O)*; OBn = c1ccc(CO*)cc1

Test systems include 786-0 renal; COLO 205 colon; HL-60(TB) leukemia; K-562 leukemia; MALME-3M melanoma; NCI-H226 lung; OVCAR-3 ovarian; OVCAR-8 ovarian; SK-MEL-2 melanoma; SK-MEL-5 melanoma; TK-10 renal; UO-31 renal; UACC-62 melanoma.
Test in all cases: NCI tumour cell line growth inhibition, 48 h

Consider `CC1(C)C2CCC3(OCCO3)C1C1OC12` (stereo not given), for which the TGI in the assay on 786-0 renal, in the assay with COLO 205 colon, with HL-60(TB) leukemia, in the assay with K-562 leukemia, in the assay with MALME-3M melanoma and in the assay with NCI-H226 lung was greater than 100 µM throughout. In addition, the TGI in the assay with OVCAR-3 ovarian, in the assay on OVCAR-8 ovarian, with SK-MEL-2 melanoma, with SK-MEL-5 melanoma, with TK-10 renal and in the assay with UO-31 renal was greater than 100 µM in each case.
Regarding `O=C1C2CCC(C2)C12CC1(c3ccccc3)C(=O)c3ccccc3N1O2` (stereo not given), the TGI in the assay with 786-0 renal, with COLO 205 colon, in the assay with HL-60(TB) leukemia, with K-562 leukemia, in the assay with MALME-3M melanoma and in the assay on NCI-H226 lung was greater than 100 µM throughout. Further, the TGI in the assay on OVCAR-8 ovarian, in the assay with SK-MEL-5 melanoma, in the assay with UACC-62 melanoma and with UO-31 renal was greater than 100 µM each time.
As to `COc1ccc([N-]/C(=N\n2c(=O)c(C)nn(C)c2=S)N(c2ccc(OC)cc2)c2nn3c(=O)c(C)n[n+](C)c3s2)cc1`, the TGI in the assay with 786-0 renal, in the assay on COLO 205 colon, in the assay on HL-60(TB) leukemia, in the assay with K-562 leukemia, in the assay on NCI-H226 lung and in the assay with OVCAR-8 ovarian was greater than 100 µM each time. Further, the TGI in the assay on SK-MEL-5 melanoma and with UACC-62 melanoma was greater than 100 µM each time.
For the compound `CC(C)C(C(=O)N1CCC[C@@H]1C(=O)OCc1ccccc1)N(C)C(=O)C(C(C)C)N(C)C(=O)[C@H](Cc1ccccc1)N(C)C(=O)[C@H](NC(=O)OC(C)(C)C)C(C)C` (stereo not given in full) (Boc-[dV][NMeF][ξNMeV][ξNMeV][dP]-OBn), the TGI in the assay on 786-0 renal, with COLO 205 colon, with HL-60(TB) leukemia, in the assay with K-562 leukemia, in the assay on MALME-3M melanoma and in the assay on NCI-H226 lung was greater than 100 µM throughout. Moreover, the TGI in the assay on OVCAR-3 ovarian, in the assay on OVCAR-8 ovarian, with SK-MEL-2 melanoma, in the assay on SK-MEL-5 melanoma, in the assay on TK-10 renal and in the assay with UACC-62 melanoma was greater than 100 µM in each case. The compound also returned a TGI in the assay with UO-31 renal greater than 100 µM.
Turning to `CC(=O)OC1CC2(c3ccccc3)C(=O)c3ccccc3N2O1` (stereo not given), the TGI with 786-0 renal, in the assay on COLO 205 colon, in the assay on HL-60(TB) leukemia, with K-562 leukemia, with MALME-3M melanoma and in the assay on NCI-H226 lung was greater than 100 µM throughout. For the same compound, the TGI in the assay with OVCAR-8 ovarian, in the assay on SK-MEL-5 melanoma, in the assay on UACC-62 melanoma and in the assay on UO-31 renal was greater than 100 µM each time.
As to `CC12CC[C@H](O)C(C)(C)[C@H]1CC[C@](C)(O)C2COc1ccc2ccc(=O)oc2c1` (stereo not given in full), the TGI with 786-0 renal, in the assay on COLO 205 colon, in the assay on HL-60(TB) leukemia, in the assay with K-562 leukemia, in the assay with MALME-3M melanoma and in the assay on NCI-H226 lung was greater than 100 µM each time. In addition, the TGI with OVCAR-3 ovarian, in the assay on OVCAR-8 ovarian, with SK-MEL-2 melanoma, with TK-10 renal, with UACC-62 melanoma and in the assay with UO-31 renal was greater than 100 µM throughout.
As for `COc1ccc(C2ON(c3ccccn3)CC=C2C)cc1` (stereo not given), the TGI in the assay with 786-0 renal, with COLO 205 colon, in the assay with HL-60(TB) leukemia, in the assay with K-562 leukemia, in the assay with MALME-3M melanoma and in the assay with NCI-H226 lung was greater than 100 µM throughout. In addition, the TGI in the assay with OVCAR-3 ovarian, in the assay with OVCAR-8 ovarian, with SK-MEL-2 melanoma, in the assay on SK-MEL-5 melanoma, in the assay with UACC-62 melanoma and in the assay on UO-31 renal was greater than 100 µM each time.
For the compound `O=c1c2ccccc2nc(-c2ccccc2)n1NC(=S)Nc1ccc(Cl)cc1[N+](=O)[O-]`, the TGI in the assay with 786-0 renal was greater than 100 µM; in the assay on COLO 205 colon it was greater than 100 µM; with HL-60(TB) leukemia, greater than 100 µM; in the assay on K-562 leukemia it was greater than 100 µM; in the assay on MALME-3M melanoma, greater than 100 µM; in the assay with NCI-H226 lung, 82.4 µM. The TGI in the assay with OVCAR-8 ovarian, with SK-MEL-2 melanoma, in the assay on SK-MEL-5 melanoma, in the assay on TK-10 renal, with UACC-62 melanoma and with UO-31 renal was greater than 100 µM each time.
`O=C1c2nn(-c3ccccc3)nc2C(c2ccccc2)N1c1ccccc1` (stereo not given): the TGI in the assay with 786-0 renal, with COLO 205 colon, in the assay with K-562 leukemia, in the assay with MALME-3M melanoma, with NCI-H226 lung and in the assay with OVCAR-3 ovarian was greater than 100 µM in each case. In addition, the TGI in the assay with OVCAR-8 ovarian, in the assay on SK-MEL-2 melanoma, in the assay on SK-MEL-5 melanoma, with UACC-62 melanoma and with UO-31 renal was greater than 100 µM each time.

(Values after PubChem BioAssay (NCI).)
